From the kinase profiling compilation of Christmann-Franck et al. (2016)
“And” between values parts separate entries of the source, which are not always exact repeats. Identical values can stand only once.

Experiments:
Test in all cases: radiometric filter-binding kinase assay, Kinase HotSpot
Details in all cases: compound 0.5 µM; ATP 10 µM
PRKCE (human) = PRKCE (human) (UniProt Q02156)
STK4 (human) = STK4 (human) (UniProt Q13043)
CAMK2D (human) = CAMK2D (human) (UniProt Q13557)
PRKD3 (human) = PRKD3 (human) (UniProt O94806)
BMX (human) = BMX (human) (UniProt P51813)
NTRK3 (human) = NTRK3 (human) (UniProt Q16288)
CLK2 (human) = CLK2 (human) (UniProt P49760)
AKT2 (human) = AKT2 (human) (UniProt P31751)
CSK (human) = CSK (human) (UniProt P41240)
RPS6KA5 KD2 (human) = RPS6KA5 KD2 (human) (UniProt O75582)
NEK2 (human) = NEK2 (human) (UniProt P51955)
SLK (human) = SLK (human) (UniProt Q9H2G2)
DAPK1 (human) = DAPK1 (human) (UniProt P53355)
MLTK (human) = MLTK (human) (UniProt Q9NYL2)
PRKCD (human) = PRKCD (human) (UniProt Q05655)
LCK (human) = LCK (human) (UniProt P06239)
ROCK1 (human) = ROCK1 (human) (UniProt Q13464)
PRKG2 (human) = PRKG2 (human) (UniProt Q13237)
TTK (human) = TTK (human) (UniProt P33981)
IKBKE (human) = IKBKE (human) (UniProt Q14164)
MYO3B (human) = MYO3B (human) (UniProt Q8WXR4)
PRKG1 (human) = PRKG1 (human) (UniProt Q13976)
SGK2 (human) = SGK2 (human) (UniProt Q9HBY8)
MAP2K1 (human) = MAP2K1 (human) (UniProt Q02750)
PBK (human) = PBK (human) (UniProt Q96KB5)
EPHB1 (human) = EPHB1 (human) (UniProt P54762)
GSG2 (human) = GSG2 (human) (UniProt Q8TF76)
TAOK1 (human) = TAOK1 (human) (UniProt Q7L7X3)
SRMS (human) = SRMS (human) (UniProt Q9H3Y6)
YES1 (human) = YES1 (human) (UniProt P07947)
NEK9 (human) = NEK9 (human) (UniProt Q8TD19)
DMPK (human) = DMPK (human) (UniProt Q09013)
CDK4 CCND1 (human) = CDK4 CCND1 (human) (UniProt P24385+P11802)
VRK1 (human) = VRK1 (human) (UniProt Q99986)
NUAK2 (human) = NUAK2 (human) (UniProt Q9H093)
PRKCB1 (human) = PRKCB1 (human) (UniProt P05771)
CDC42BPB (human) = CDC42BPB (human) (UniProt Q9Y5S2)
GRK6 (human) = GRK6 (human) (UniProt P43250)
BRSK1 (human) = BRSK1 (human) (UniProt Q8TDC3)
MAP3K7 TAB1 (human) = MAP3K7 TAB1 (human) (UniProt O43318+Q15750)
EPHA4 (human) = EPHA4 (human) (UniProt P54764)
LIMK1 (human) = LIMK1 (human) (UniProt P53667)

BMX (human), sequence (P51813 whole entry, looked up): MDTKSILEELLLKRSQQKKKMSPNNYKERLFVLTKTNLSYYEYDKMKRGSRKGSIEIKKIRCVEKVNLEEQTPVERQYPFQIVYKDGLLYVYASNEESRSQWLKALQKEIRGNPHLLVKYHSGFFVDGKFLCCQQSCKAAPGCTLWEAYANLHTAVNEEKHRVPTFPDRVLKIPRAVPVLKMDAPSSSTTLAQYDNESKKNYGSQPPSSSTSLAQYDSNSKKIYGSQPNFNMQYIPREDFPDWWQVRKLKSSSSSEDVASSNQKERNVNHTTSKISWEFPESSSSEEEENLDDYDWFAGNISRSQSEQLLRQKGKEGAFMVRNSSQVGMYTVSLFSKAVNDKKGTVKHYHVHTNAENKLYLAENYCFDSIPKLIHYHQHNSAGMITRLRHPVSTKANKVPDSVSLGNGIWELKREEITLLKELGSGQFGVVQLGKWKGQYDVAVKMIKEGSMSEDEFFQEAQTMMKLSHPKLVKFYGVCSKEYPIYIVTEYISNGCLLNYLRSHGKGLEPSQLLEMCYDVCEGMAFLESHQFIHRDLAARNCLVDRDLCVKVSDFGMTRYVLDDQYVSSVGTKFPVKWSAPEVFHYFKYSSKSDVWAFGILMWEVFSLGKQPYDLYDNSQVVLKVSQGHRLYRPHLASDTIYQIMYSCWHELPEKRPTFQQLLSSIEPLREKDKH
CLK2 (human), sequence (P49760 whole entry, looked up): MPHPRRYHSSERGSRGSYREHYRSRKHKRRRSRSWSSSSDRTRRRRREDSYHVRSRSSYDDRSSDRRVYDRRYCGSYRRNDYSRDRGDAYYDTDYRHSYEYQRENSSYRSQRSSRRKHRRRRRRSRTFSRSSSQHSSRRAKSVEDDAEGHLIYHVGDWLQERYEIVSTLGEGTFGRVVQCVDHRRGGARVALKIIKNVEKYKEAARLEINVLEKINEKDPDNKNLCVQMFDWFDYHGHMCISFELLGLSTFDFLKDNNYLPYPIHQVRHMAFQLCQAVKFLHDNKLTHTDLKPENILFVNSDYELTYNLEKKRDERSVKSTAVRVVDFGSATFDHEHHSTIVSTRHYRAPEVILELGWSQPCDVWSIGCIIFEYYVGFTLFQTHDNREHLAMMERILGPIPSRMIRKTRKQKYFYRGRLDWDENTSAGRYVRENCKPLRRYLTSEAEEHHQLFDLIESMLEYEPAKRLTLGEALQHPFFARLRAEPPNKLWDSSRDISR
DAPK1 (human), sequence (P53355 whole entry, looked up): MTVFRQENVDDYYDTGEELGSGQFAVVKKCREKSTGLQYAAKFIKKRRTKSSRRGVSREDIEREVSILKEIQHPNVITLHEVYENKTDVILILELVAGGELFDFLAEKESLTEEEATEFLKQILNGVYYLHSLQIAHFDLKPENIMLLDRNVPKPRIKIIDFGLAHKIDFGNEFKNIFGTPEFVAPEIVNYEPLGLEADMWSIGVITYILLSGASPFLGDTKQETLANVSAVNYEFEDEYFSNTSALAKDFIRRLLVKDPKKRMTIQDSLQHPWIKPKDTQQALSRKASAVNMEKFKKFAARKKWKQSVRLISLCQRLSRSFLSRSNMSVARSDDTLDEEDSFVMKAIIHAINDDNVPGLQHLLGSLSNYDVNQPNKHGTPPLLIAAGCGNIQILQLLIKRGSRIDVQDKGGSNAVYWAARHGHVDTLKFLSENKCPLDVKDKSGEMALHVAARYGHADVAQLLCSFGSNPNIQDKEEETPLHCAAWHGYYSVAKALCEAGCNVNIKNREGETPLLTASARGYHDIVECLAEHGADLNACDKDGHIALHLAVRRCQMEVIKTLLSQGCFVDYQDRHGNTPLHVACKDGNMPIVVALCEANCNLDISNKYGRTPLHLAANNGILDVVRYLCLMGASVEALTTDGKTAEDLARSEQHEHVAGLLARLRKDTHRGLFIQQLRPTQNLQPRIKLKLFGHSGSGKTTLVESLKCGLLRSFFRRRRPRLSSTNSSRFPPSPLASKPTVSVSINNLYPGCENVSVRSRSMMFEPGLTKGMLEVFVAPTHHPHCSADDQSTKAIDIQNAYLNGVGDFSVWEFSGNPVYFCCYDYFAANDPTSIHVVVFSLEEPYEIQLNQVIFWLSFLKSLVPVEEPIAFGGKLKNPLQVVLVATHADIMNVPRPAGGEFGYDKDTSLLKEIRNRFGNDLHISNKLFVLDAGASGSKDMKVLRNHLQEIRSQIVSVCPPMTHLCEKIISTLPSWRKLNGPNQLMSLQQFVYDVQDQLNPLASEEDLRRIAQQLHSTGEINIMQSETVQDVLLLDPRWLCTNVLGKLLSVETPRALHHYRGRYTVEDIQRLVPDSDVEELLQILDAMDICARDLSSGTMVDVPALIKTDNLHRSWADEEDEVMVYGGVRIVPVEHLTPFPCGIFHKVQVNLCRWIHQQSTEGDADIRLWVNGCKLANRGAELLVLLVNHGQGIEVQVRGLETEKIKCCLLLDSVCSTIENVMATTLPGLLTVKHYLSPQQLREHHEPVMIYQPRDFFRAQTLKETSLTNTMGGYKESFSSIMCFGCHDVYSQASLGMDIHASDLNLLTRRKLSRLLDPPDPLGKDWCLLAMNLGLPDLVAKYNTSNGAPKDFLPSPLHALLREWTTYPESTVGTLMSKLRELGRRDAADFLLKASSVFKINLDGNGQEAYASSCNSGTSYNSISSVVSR
LCK (human), sequence (P06239 whole entry, looked up): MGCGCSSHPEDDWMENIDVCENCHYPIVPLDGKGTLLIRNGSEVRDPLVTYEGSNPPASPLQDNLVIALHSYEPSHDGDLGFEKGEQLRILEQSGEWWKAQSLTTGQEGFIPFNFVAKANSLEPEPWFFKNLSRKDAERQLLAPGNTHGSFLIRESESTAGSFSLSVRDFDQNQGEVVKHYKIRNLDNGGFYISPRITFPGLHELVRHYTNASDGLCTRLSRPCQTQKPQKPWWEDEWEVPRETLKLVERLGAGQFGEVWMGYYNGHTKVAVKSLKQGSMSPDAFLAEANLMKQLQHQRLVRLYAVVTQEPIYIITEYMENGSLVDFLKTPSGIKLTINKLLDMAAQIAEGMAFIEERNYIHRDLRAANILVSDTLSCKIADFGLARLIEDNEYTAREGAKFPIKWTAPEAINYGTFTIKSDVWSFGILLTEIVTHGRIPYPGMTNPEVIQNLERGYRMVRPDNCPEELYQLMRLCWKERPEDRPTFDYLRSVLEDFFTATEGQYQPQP
EPHB1 (human), sequence (P54762 whole entry, looked up): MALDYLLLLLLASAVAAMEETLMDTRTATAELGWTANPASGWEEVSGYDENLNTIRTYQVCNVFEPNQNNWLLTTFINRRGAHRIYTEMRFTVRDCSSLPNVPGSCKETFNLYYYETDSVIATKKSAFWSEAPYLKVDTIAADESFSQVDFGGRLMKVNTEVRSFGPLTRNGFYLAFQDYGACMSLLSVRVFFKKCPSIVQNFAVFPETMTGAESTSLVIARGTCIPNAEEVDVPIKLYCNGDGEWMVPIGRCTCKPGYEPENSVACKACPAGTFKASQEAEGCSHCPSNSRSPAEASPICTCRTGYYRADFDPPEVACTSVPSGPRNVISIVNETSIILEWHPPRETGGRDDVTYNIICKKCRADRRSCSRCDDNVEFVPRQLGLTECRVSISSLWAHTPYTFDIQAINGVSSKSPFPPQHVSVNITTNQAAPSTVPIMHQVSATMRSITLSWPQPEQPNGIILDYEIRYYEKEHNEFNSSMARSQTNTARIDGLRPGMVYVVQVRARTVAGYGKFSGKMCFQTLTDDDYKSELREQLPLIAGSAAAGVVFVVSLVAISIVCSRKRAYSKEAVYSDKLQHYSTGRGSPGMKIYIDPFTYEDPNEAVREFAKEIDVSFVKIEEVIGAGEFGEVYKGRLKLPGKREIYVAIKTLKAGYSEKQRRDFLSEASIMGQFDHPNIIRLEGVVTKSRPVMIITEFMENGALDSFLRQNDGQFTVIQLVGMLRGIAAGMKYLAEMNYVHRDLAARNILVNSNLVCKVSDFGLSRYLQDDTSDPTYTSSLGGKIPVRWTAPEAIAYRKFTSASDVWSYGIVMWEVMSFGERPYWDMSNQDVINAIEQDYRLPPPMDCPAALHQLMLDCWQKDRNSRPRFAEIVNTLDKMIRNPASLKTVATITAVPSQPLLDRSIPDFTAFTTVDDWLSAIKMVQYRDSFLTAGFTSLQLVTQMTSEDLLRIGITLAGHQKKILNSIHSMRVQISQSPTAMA
SGK2 (human), sequence (Q9HBY8 whole entry, looked up): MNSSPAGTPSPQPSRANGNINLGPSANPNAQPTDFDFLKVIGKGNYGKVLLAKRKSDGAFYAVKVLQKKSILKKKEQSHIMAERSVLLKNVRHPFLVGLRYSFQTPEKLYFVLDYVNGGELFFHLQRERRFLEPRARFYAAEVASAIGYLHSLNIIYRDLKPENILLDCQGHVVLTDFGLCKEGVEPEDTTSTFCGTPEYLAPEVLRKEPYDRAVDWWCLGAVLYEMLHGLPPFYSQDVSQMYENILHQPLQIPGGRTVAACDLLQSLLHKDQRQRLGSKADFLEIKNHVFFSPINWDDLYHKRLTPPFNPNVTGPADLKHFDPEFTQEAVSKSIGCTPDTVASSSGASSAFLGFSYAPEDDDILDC
GRK6 (human), sequence (P43250 whole entry, looked up): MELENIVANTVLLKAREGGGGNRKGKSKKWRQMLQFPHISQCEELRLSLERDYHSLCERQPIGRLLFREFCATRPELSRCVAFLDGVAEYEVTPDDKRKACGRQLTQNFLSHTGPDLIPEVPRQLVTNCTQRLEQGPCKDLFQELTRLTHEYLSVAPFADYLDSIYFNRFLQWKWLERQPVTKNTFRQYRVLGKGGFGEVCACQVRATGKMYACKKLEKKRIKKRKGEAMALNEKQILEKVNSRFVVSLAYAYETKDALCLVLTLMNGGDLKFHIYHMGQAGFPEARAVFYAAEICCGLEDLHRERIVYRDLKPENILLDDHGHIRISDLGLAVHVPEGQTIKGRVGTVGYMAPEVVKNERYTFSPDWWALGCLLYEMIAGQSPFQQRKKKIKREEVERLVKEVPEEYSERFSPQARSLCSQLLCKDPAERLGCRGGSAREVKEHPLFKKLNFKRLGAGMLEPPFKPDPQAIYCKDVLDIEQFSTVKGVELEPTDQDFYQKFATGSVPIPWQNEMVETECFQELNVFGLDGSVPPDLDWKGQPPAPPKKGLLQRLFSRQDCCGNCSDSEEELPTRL

Compound: Cc1ccc(Nc2nccc(N(C)c3ccc4c(C)n(C)nc4c3)n2)cc1S(N)(=O)=O
- residual activity (PRKCE (human)): 100%
- residual activity (STK4 (human)): 98.4%
- residual activity (CAMK2D (human)): 99.4%
- residual activity (PRKD3 (human)): 90%
- residual activity (BMX (human)): 93.4%
- residual activity (NTRK3 (human)): 87.8%
- residual activity (CLK2 (human)): 90.9%
- residual activity (AKT2 (human)): 107%
- residual activity (CSK (human)): 93%
- residual activity (RPS6KA5 KD2 (human)): 101%
- residual activity (NEK2 (human)): 110%
- residual activity (SLK (human)): 84.9%
- residual activity (DAPK1 (human)): 105%
- residual activity (MLTK (human)): 96.9%
- residual activity (PRKCD (human)): 106%
- residual activity (LCK (human)): 43.3%
- residual activity (ROCK1 (human)): 100%
- residual activity (PRKG2 (human)): 96%
- residual activity (TTK (human)): 73.4%
- residual activity (IKBKE (human)): 87%
- residual activity (MYO3B (human)): 83.4%
- residual activity (PRKG1 (human)): 103% and 95.1%
- residual activity (SGK2 (human)): 160%
- residual activity (MAP2K1 (human)): 106%
- residual activity (PBK (human)): 101%
- residual activity (EPHB1 (human)): 92.2%
- residual activity (GSG2 (human)): 90.4%
- residual activity (TAOK1 (human)): 28.9%
- residual activity (SRMS (human)): 115%
- residual activity (YES1 (human)): 52.6%
- residual activity (NEK9 (human)): 95.8%
- residual activity (DMPK (human)): 93.5%
- residual activity (CDK4 CCND1 (human)): 88.4%
- residual activity (VRK1 (human)): 100%
- residual activity (NUAK2 (human)): 93.8%
- residual activity (PRKCB1 (human)): 91%
- residual activity (CDC42BPB (human)): 99.9%
- residual activity (GRK6 (human)): 102%
- residual activity (BRSK1 (human)): 97.2%
- residual activity (MAP3K7 TAB1 (human)): 90.6%
- residual activity (EPHA4 (human)): 94.5%

Compound: Nc1ncnc2[nH]nc(Nc3ccc(F)cc3)c12
- residual activity (PRKCE (human)): 99.5%
- residual activity (STK4 (human)): 90.4%
- residual activity (CAMK2D (human)): 92.5%
- residual activity (PRKD3 (human)): 86.7%
- residual activity (BMX (human)): 89.6%
- residual activity (NTRK3 (human)): 81.5%
- residual activity (CLK2 (human)): 92.4%
- residual activity (AKT2 (human)): 108%
- residual activity (CSK (human)): 80.2%
- residual activity (RPS6KA5 KD2 (human)): 96.7%
- residual activity (NEK2 (human)): 89.3%
- residual activity (SLK (human)): 99.5%
- residual activity (DAPK1 (human)): 116%
- residual activity (MLTK (human)): 88%
- residual activity (PRKCD (human)): 112%
- residual activity (LCK (human)): 98.3%
- residual activity (ROCK1 (human)): 100%
- residual activity (PRKG2 (human)): 97%
- residual activity (TTK (human)): 96.1%
- residual activity (IKBKE (human)): 100%
- residual activity (MYO3B (human)): 87.9%
- residual activity (PRKG1 (human)): 95.7% and 96.9%
- residual activity (SGK2 (human)): 96.5%
- residual activity (MAP2K1 (human)): 101%
- residual activity (PBK (human)): 87.6%
- residual activity (LIMK1 (human)): 95.2%
- residual activity (GSG2 (human)): 87.7%
- residual activity (TAOK1 (human)): 92%
- residual activity (SRMS (human)): 104%
- residual activity (YES1 (human)): 92.9%
- residual activity (NEK9 (human)): 97.9%
- residual activity (DMPK (human)): 114%
- residual activity (CDK4 CCND1 (human)): 90.3%
- residual activity (VRK1 (human)): 82.9%
- residual activity (NUAK2 (human)): 90.4%
- residual activity (PRKCB1 (human)): 95.9%
- residual activity (CDC42BPB (human)): 106%
- residual activity (GRK6 (human)): 103%
- residual activity (BRSK1 (human)): 63%
- residual activity (MAP3K7 TAB1 (human)): 100%
- residual activity (EPHA4 (human)): 90.1%

Compound: O=C1NC(=O)c2c1c1c3ccccc3n3c1c1c2c2ccccc2n1C1CCC3O1
- residual activity (PRKCE (human)): 28.4%
- residual activity (STK4 (human)): 3.56%
- residual activity (CAMK2D (human)): 7.03%
- residual activity (PRKD3 (human)): -0.0451%
- residual activity (BMX (human)): 27.5%
- residual activity (NTRK3 (human)): 1.41%
- residual activity (CLK2 (human)): 52.1%
- residual activity (AKT2 (human)): 48.5%
- residual activity (CSK (human)): 79.7%
- residual activity (RPS6KA5 KD2 (human)): 9.88%
- residual activity (NEK2 (human)): 93.8%
- residual activity (SLK (human)): 26%
- residual activity (DAPK1 (human)): 32.7%
- residual activity (MLTK (human)): 89.7%
- residual activity (PRKCD (human)): 19%
- residual activity (LCK (human)): 36.2%
- residual activity (ROCK1 (human)): 88.7%
- residual activity (PRKG2 (human)): 6.01%
- residual activity (TTK (human)): 76.4%
- residual activity (IKBKE (human)): 23.9%
- residual activity (MYO3B (human)): 19.1%
- residual activity (PRKG1 (human)): 35.7% and 41.3%
- residual activity (SGK2 (human)): 18.6%
- residual activity (MAP2K1 (human)): 29.5%
- residual activity (PBK (human)): 39.9%
- residual activity (LIMK1 (human)): 49.3%
- residual activity (EPHB1 (human)): 80.2%
- residual activity (GSG2 (human)): 18.5%
- residual activity (TAOK1 (human)): 66.9%
- residual activity (SRMS (human)): 105%
- residual activity (YES1 (human)): 31.9%
- residual activity (NEK9 (human)): 23.4%
- residual activity (DMPK (human)): 98.8%
- residual activity (CDK4 CCND1 (human)): 11.2%
- residual activity (VRK1 (human)): 90.2%
- residual activity (NUAK2 (human)): 52%
- residual activity (PRKCB1 (human)): 22.5%
- residual activity (GRK6 (human)): 55.6%
- residual activity (BRSK1 (human)): 14.8%
- residual activity (MAP3K7 TAB1 (human)): 6.06%
- residual activity (EPHA4 (human)): 91.4%

Compound: CCOC(=O)c1c(C)[nH]c(/C=C2\C(=O)Nc3ccccc32)c1C
- residual activity (PRKCE (human)): 98.2%
- residual activity (STK4 (human)): 83.4%
- residual activity (CAMK2D (human)): 93.9%
- residual activity (PRKD3 (human)): 90.1%
- residual activity (BMX (human)): 93.5%
- residual activity (NTRK3 (human)): 27.9%
- residual activity (CLK2 (human)): 86%
- residual activity (AKT2 (human)): 87.6%
- residual activity (CSK (human)): 104%
- residual activity (RPS6KA5 KD2 (human)): 91.8%
- residual activity (NEK2 (human)): 91.4%
- residual activity (SLK (human)): 89.8%
- residual activity (DAPK1 (human)): 100%
- residual activity (MLTK (human)): 92.7%
- residual activity (PRKCD (human)): 91.6%
- residual activity (LCK (human)): 88.2%
- residual activity (ROCK1 (human)): 99.1%
- residual activity (PRKG2 (human)): 78.9%
- residual activity (TTK (human)): 96.6%
- residual activity (IKBKE (human)): 93.5%
- residual activity (MYO3B (human)): 74.1%
- residual activity (PRKG1 (human)): 78.3% and 92.8%
- residual activity (SGK2 (human)): 93.7%
- residual activity (PBK (human)): 85%
- residual activity (LIMK1 (human)): 81.3%
- residual activity (EPHB1 (human)): 97.5%
- residual activity (GSG2 (human)): 92.9%
- residual activity (TAOK1 (human)): 100%
- residual activity (SRMS (human)): 104%
- residual activity (YES1 (human)): 68.3%
- residual activity (NEK9 (human)): 80.8%
- residual activity (DMPK (human)): 101%
- residual activity (CDK4 CCND1 (human)): 103%
- residual activity (VRK1 (human)): 104%
- residual activity (NUAK2 (human)): 128%
- residual activity (PRKCB1 (human)): 103%
- residual activity (CDC42BPB (human)): 110%
- residual activity (GRK6 (human)): 90.8%
- residual activity (BRSK1 (human)): 92.6%
- residual activity (MAP3K7 TAB1 (human)): 85.8%
- residual activity (EPHA4 (human)): 80.3%
